Test results from US8350079B2, “Treprostinil formulation” (United Therapeutics Corporation, priority 2008, dated 2013).

Assays:
[1] = Stability tests of treprostinil forms (dimer formation, room temperature stability); assay type: physicochemical; settings: room temperature
Experimental: The anhydrous form of treprostinil (TREPROSTINIL) has been previously described, e.g., in J. Org. Chem. 2004, 69, 1890-1902. […] A larger amount of dimers can form at higher temperatures. However, dimer formation is negligible at 5° C. Therefore, anhydrous treprostinil must be refrigerated for storage and transport. In the past, treprostinil had to be refrigerated and shipped with ice packs to maintain low (2° C.-8° C.) temperatures.
The instability of anhydrous treprostinil also imposes challenges to its preparation. To obtain anhydrous treprostinil, wet compound from recrystallization was heated in a vacuum. […] Therefore, heating temperature must be carefully controlled to avoid high heat when drying treprostinil in order to remove all water, otherwise these two dimer impurities will be produced.
Data has been generated to characterize a monohydrate form of treprostinil. […] Treprostinil monohydrate can be stored and shipped with no special handling.

[2] = Extended room temperature storage of treprostinil monohydrate lot D-1007-089 (18-month stability summary: water content, assay/impurity profile); assay type: physicochemical; settings: for TREPROSTINIL Assay: in % (unit assumed)
Experimental: 2. UT Stability Summary (18-month) for monohydrate lot # D-1007-089
A 3.4-kg sample of treprostinil diethanolamine salt was dissolved in 36 L of sterile water, 60 L of ethyl acetate and 3.6 L of 3 M HCl were added and the mixture stirred. The layers were separated and the aqueous layer was extracted thrice with 20-L portions of ethyl acetate. The four organic layers were combined, the organic solution washed twice with 20-L portions of sterile water, once with 20 L of brine and dried over 2.86 kg of anhydrous sodium sulfate. The mixture was filtered and the filtrate was concentrated to yield treprostinil as a gummy solid. This solid was transferred to glass drying trays and let air-dry for 66 hours. This solid was then dissolved in 23.8 kg of ethanol, warmed to 48° C. and treated with 23.8 kg of warm (40-50° C.) sterile water. The solution was stirred and then stirring was stopped to allow the treprostinil to slowly crystallize. The resulting white solid was collected by filtration in an Aurora filter, washed with 45 L of a cold (6° C.) 20% ethanol in sterile water solution, the filter moved to a Hepa-filtered Finishing Room and the solid dried under house vacuum for 23 hours. The solid was transferred to glass drying trays and further air-dried for 115 hours until the total weight of the material was constant (no further solvent loss). A sample of this treprostinil monohydrate was taken as Lot #D-1007-089 for stability studies. The remaining material was further dried in a vacuum oven at 55° C. and 1.66 Torr for 10 hours to give 2.68 kg (96.4%) of anhydrous treprostinil (Lot #01G07018).
One of the stability studies has followed the monohydrate of TREPROSTINIL stored in an open container.

[3] = 1 Month, Container 1 (closed), room temperature
[4] = 1 Month, Container 2 (covered with Kimwipe), room temperature
[5] = 2 Months, Container 1 (closed), room temperature
[6] = 2 Months, Container 2 (covered with Kimwipe), room temperature
[7] = 3 Months, Container 1 (closed), room temperature
[8] = 3 Months, Container 2 (covered with Kimwipe), room temperature
[9] = 6 Months, Container 1 (closed), room temperature
[10] = 6 Months, Container 2 (covered with Kimwipe), room temperature
[11] = 12 Months, Container 1 (closed), room temperature
[12] = 12 Months, Container 2 (covered with Kimwipe), room temperature
[13] = 18 Month, Container 1 (closed), room temperature
[14] = 18 Month, Container 2 (covered with Kimwipe), room temperature
[15] = Initial, Container 1 (closed), room temperature
[16] = Initial, Container 2 (covered with Kimwipe), room temperature

Structure (SMILES): CCCCC[C@H](O)CC[C@@H]1[C@H]2Cc3cccc(OCC(=O)O)c3C[C@H]2C[C@H]1O [TREPROSTINIL Lot# D-1007-089, treprostinil monohydrate]
- Stability at room temperature [1]: stable at room temperature
- 750W93 [2, 3]: 0.09%
- 751W93 [2, 3]: 0.04%
- Impurity 1 [2, 3]: 0.05
- Impurity 2 [2, 3]: 0.05
- TREPROSTINIL Ethyl Ester [2, 3]: 0.2%
- Total impurities [2, 3]: 0.5%
- TREPROSTINIL Assay [2, 3]: 100.1
- 750W93 [2, 4]: 0.09%
- 751W93 [2, 4]: 0.04%
- Impurity 1 [2, 4]: 0.05
- Impurity 2 [2, 4]: 0.05
- TREPROSTINIL Ethyl Ester [2, 4]: 0.2%
- Total impurities [2, 4]: 0.5%
- TREPROSTINIL Assay [2, 4]: 100.4
- 750W93 [2, 5]: 0.09%
- 751W93 [2, 5]: 0.04%
- Impurity 1 [2, 5]: 0.05
- Impurity 2 [2, 5]: 0.05
- TREPROSTINIL Ethyl Ester [2, 5]: 0.2%
- Total impurities [2, 5]: 0.5%
- Water, KF [2, 5]: 4.46%
- TREPROSTINIL Assay [2, 5]: 99.5
- 750W93 [2, 6]: 0.09%
- 751W93 [2, 6]: 0.04%
- Impurity 1 [2, 6]: 0.05
- Impurity 2 [2, 6]: 0.05
- TREPROSTINIL Ethyl Ester [2, 6]: 0.2%
- Total impurities [2, 6]: 0.5%
- Water, KF [2, 6]: 4.47%
- TREPROSTINIL Assay [2, 6]: 99.6
- 750W93 [2, 7]: 0.09%
- 751W93 [2, 7]: 0.04%
- Impurity 1 [2, 7]: 0.06
- Impurity 2 [2, 7]: <0.05
- TREPROSTINIL Ethyl Ester [2, 7]: 0.2%
- Total impurities [2, 7]: 0.5%
- Water, KF [2, 7]: 4.51%
- TREPROSTINIL Assay [2, 7]: 98.1
- 750W93 [2, 8]: 0.09%
- 751W93 [2, 8]: 0.04%
- Impurity 1 [2, 8]: 0.06
- Impurity 2 [2, 8]: <0.05
- TREPROSTINIL Ethyl Ester [2, 8]: 0.2%
- Total impurities [2, 8]: 0.5%
- Water, KF [2, 8]: 4.48%
- TREPROSTINIL Assay [2, 8]: 98.6
- 750W93 [2, 9]: 0.1%
- 751W93 [2, 9]: 0.04%
- Impurity 1 [2, 9]: <0.05
- Impurity 2 [2, 9]: <0.05
- TREPROSTINIL Ethyl Ester [2, 9]: 0.2%
- Total impurities [2, 9]: 0.6%
- Water, KF [2, 9]: 4.59%
- TREPROSTINIL Assay [2, 9]: 99.4
- 750W93 [2, 10]: 0.09%
- 751W93 [2, 10]: 0.04%
- Impurity 1 [2, 10]: <0.05
- Impurity 2 [2, 10]: <0.05
- TREPROSTINIL Ethyl Ester [2, 10]: 0.2%
- Total impurities [2, 10]: 0.6%
- Water, KF [2, 10]: 4.72%
- TREPROSTINIL Assay [2, 10]: 99.3
- 750W93 [2, 11]: 0.09%
- 751W93 [2, 11]: < 0.05%
- Impurity 1 [2, 11]: 0.06
- Impurity 2 [2, 11]: 0.05
- TREPROSTINIL Ethyl Ester [2, 11]: 0.2%
- Total impurities [2, 11]: 0.5%
- Water, KF [2, 11]: 4.72%
- TREPROSTINIL Assay [2, 11]: 100.1
- 750W93 [2, 12]: 0.09%
- 751W93 [2, 12]: < 0.05%
- Impurity 1 [2, 12]: 0.06
- Impurity 2 [2, 12]: 0.05
- TREPROSTINIL Ethyl Ester [2, 12]: 0.2%
- Total impurities [2, 12]: 0.05%
- Water, KF [2, 12]: 4.73%
- TREPROSTINIL Assay [2, 12]: 100.3
- 750W93 [2, 13]: 0.09%
- 751W93 [2, 13]: < 0.05%
- Impurity 1 [2, 13]: <0.05
- Impurity 2 [2, 13]: 0.05
- TREPROSTINIL Ethyl Ester [2, 13]: 0.2%
- Total impurities [2, 13]: 0.05%
- Water, KF [2, 13]: 4.67%
- TREPROSTINIL Assay [2, 13]: 100.3
- 750W93 [2, 14]: 0.09%
- 751W93 [2, 14]: < 0.05%
- Impurity 1 [2, 14]: <0.05
- Impurity 2 [2, 14]: 0.05
- TREPROSTINIL Ethyl Ester [2, 14]: 0.2%
- Total impurities [2, 14]: 0.05%
- Water, KF [2, 14]: 4.72%
- TREPROSTINIL Assay [2, 14]: 99.8
- 750W93 [2, 15]: 0.1%
- 751W93 [2, 15]: 0.04%
- Impurity 1 [2, 15]: 0.06
- Impurity 2 [2, 15]: 0.05
- TREPROSTINIL Ethyl Ester [2, 15]: 0.2%
- Total impurities [2, 15]: 0.5%
- Water, KF [2, 15]: 4.55%
- TREPROSTINIL Assay [2, 15]: 99.6
- 750W93 [2, 16]: 0.1%
- 751W93 [2, 16]: 0.04%
- Impurity 1 [2, 16]: 0.05
- Impurity 2 [2, 16]: <0.05
- TREPROSTINIL Ethyl Ester [2, 16]: 0.2%
- Total impurities [2, 16]: 0.5%
- Water, KF [2, 16]: 4.37%
- TREPROSTINIL Assay [2, 16]: 99.5
- Retention of the one mole of water in the solid ([2]; open container, over 18-months): has not disappeared
- Stability compared with the anhydrous form ([2]; room temperature, e.g. 25° C. / ambient temperatures): more stable than the anhydrous form
